Each structure is given as a SMILES string.

In assay [1] the target is T1, oxytocin receptor recombinant protein (Homo sapiens, UniProt P30559).
T1 construct: purchased Mybiosource, MA
T1 sequence (P30559 1-389): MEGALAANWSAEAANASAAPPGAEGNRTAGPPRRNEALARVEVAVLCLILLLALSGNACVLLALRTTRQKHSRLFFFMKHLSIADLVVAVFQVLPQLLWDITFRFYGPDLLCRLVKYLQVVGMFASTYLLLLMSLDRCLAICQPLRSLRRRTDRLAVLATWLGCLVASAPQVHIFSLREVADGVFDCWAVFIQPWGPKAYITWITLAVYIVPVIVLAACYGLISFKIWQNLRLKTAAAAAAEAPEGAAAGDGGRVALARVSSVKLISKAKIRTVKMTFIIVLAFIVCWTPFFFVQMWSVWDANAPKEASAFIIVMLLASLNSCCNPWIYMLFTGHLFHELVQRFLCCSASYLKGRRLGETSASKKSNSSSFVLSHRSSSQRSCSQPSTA
The assay can be described thus: Binding of cosmoperine to the oxytocin receptor by surface plasmon resonance. The following applies: SPR chip with oxytocin receptor bound to its surface; cosmoperine 0 to 400 μM; reaction for 90 seconds. How it is done:
In order to confirm the binding of cosmoperine to the oxytocin receptor, cosmoperine (Sabina Corp, NJ) at a concentration of 0 to 400 μM was applied to a SPR chip (Biorad, MA) with the oxytocin receptor (oxytocin receptor recombinant protein, Mybiosource, MA) bound to its surface, followed by reaction for 90 seconds. Then, the binding pattern of cosmoperine to the oxytocin receptor was measured using a surface plasmon resonance device (Surface plasmon resonance; Biorad, MA).
In general terms: Surface plasmon resonance follows binding to a sensor surface in real time, without labels.

In assay [2] the test system is PC12 (neurocytoma cell). The assay can be described thus: Inhibitory effect on glucocorticoid-induced apoptosis (CCK-8 cell survival). In kind it is cell-based. The conditions noted are these: PC12 cells, 400 μM corticosterone 24 hours, 50 μM cosmoperine pretreated 2 hours before, relative survival rate. The protocol: In order to confirm the anti-stress effect of cosmoperine, a test was performed for glucocorticoid-induced apoptosis.
PC12 (neurocytoma cell; KCLB21721, Korea Cell Line Bank) was seeded into a 96-well plate at 2×10^4 cells/well and cultured at 5% CO2 and 37° C. The culture medium was RPMI 1640 medium (Gibco BRL, Grand Island, N.Y., USA)) supplemented with 10% serum (heat-inactivated fetal bovine serum (FBS, Gibco)), 100 U/ml of penicillin (Gibco) and 100 μg/ml of streptomycin (Gibco). The cells were treated with 400 μM corticosterone (Sigma, MA), which is a stress hormone, and cultured at 5% CO2 and 37° C. for 24 hours to induce stress. 400 μM corticosterone and 50 μM fluoxetine (fluoxetine hydrochloride, Sigma), which is an antidepressant, were used as the positive control group. For the cosmoperine-treated group, 400 μM corticosterone and 50 μM cosmoperine (Sabina Corp, NJ) were used. Fluoxetine and cosmoperine each were pretreated 2 hours before the application of corticosterone. 10 μl of CCK-8 solution (Dojindo Laboratories) was added to each of the wells, followed by culture for 2 hours. Then, measurements were made at […].

Regarding `O=C(CCCCc1ccc2c(c1)OCO2)N1CCCCC1` [cosmoperine, tetrahydropiperine], the “binding to the oxytocin receptor” value in assay [1] is given as “binds to the oxytocin receptor in a concentration-dependent manner”. Also, the “inhibiting the apoptosis induced by corticosterone” value in assay [2] is “excellent in inhibiting the apoptosis induced by corticosterone”.

The values above are taken from US20210275422A1, “ANTI-STRESS COMPOSITION CONTAINING COSMOPERINE” (AMOREPACIFIC CORPORATION, priority 2016, published 2021).
